# What was measured:
# [1] = system: Aspergillus fumigatus; test: Antifungal activity measured against Aspergillus fumigatus; format: functional
# [2] = system: Candida parapsilosis; test: Antifungal activity against Candida parapsilosis.; format: functional; settings: Lodderomyces parapsilosis
# [3] = system: Epidermophyton floccosum; test: Antifungal activity against Epidermophyton floccosum.; format: functional
# [4] = system: Microsporum canis; test: Antifungal activity against Microsporum canis; format: functional
# [5] = system: Sporothrix schenckii; test: Antifungal activity measured against Sporothrix schenck ii.; format: functional
# [6] = Antifungal activity against Trichophyton mentagrophytes.; format: functional, Arthroderma benhamiae; settings: Trichophyton benhamiae
# [7] = system: Sporothrix schenckii; test: Antifungal activity was measured against Sporothrix schenck ii.; format: functional
# [8] = system: Trichophyton benhamiae; test: Antifungal activity measured against Trichophyton mentagrophytes; format: functional, Arthroderma benhamiae
# [9] = system: Aspergillus fumigatus; test: Antifungal activity was measured against Aspergillus fumigatus; format: functional
# [10] = system: Trichophyton benhamiae; test: ~ Antifungal activity was measured against Trichophyton mentagrophytes.; format: functional, Arthroderma benhamiae
# [11] = system: Cavia porcellus; test: In vivo antifungal activity by topical treatment of guinea pig dermatophytosis caused by Trichophyton mentagrophytes at a dose of 0.1%; format: functional
# [12] = system: Cavia porcellus; test: In vivo antifungal activity by topical treatment of guinea pig dermatophytosis caused by Trichophyton mentagrophytes at a dose of 0.5%; format: functional
# [13] = system: Cavia porcellus; test: In vivo antifungal activity by topical treatment of guinea pig dermatophytosis caused by Trichophyton mentagrophytes at a dose of 2%; format: functional
# [14] = system: Cavia porcellus; test: In vivo antifungal activity (% cure) was determined by topical treatment of guinea pig dermatophytosis caused by Trichophyton mentagrophytes at a dose of […]; format: functional
# [15] = system: Cavia porcellus; test: In vivo antifungal activity (% cure) was determined by topical treatment of guinea pig dermatophytosis caused by Trichophyton mentagrophytes at a dose of 0.5%; format: functional
# [16] = system: Cavia porcellus; test: In vivo antifungal activity (% cure) was determined by topical treatment of guinea pig dermatophytosis caused by Trichophyton mentagrophytes at a dose of 2%; format: functional
# [17] = system: Trichophyton quinckeanum; test: Antifungal activity was measured against Trichophyton mentagrophytes.; format: functional, ptrichophyton mentagrophytes
# [18] = system: Candida parapsilosis; test: Antifungal activity was measured against Candida parapsilosis.; settings: Lodderomyces parapsilosis
MIC [1] [mg/L],MIC [2] [mg/L],MIC [3] [mg/L],MIC [4] [mg/L],MIC [5] [mg/L],MIC [6] [mg/L],MIC [7] [mg/L],MIC [8] [mg/L],MIC [9] [mg/L],MIC [10] [mg/L],MIC [17] [mg/L],MIC [18] [mg/L],Structure (SMILES),Activity [11] [%],Activity [12] [%],Activity [13] [%],Activity [14] [%],Activity [15] [%],Activity [16] [%]
> 100,> 100,25,50,100,25,–,–,–,–,–,–,CN(C/C=C/c1ccccc1)Cc1ccc2ccccc2c1,–,–,–,–,–,–
> 100,> 100,12.5,50,100,6.2,–,–,–,–,–,–,CN(C/C=C/c1ccccc1)Cc1ccc2c(c1)C1CCC2C1 (centres undefined),–,–,–,–,–,–
> 100,> 100,3.1,3.1,–,–,100,< 1.6,–,–,–,–,CCOC(=O)/C=C/C=C/CN(C)Cc1cccc2ccccc12,–,–,–,–,–,–
> 100,> 100,12.5,3.1,> 100,1.6,–,–,–,–,–,–,CN(C/C=C/c1ccccc1)CC1=CCc2ccccc21,–,–,–,–,–,–
> 100,> 100,12.5,12.5,25,1.6,–,–,–,–,–,–,COc1ccc2c(CN(C)C/C=C/c3ccccc3)cccc2c1,–,–,–,–,–,–
–,> 100,–,50,> 100,–,–,12.5,> 100,–,–,–,ON(C/C=C/c1ccccc1)Cc1cccc2ccccc12,–,–,–,–,–,–
> 100,> 100,3.1,< 1.6,25,–,–,–,–,< 1.6,–,–,CN(C/C=C/c1ccccc1Cl)Cc1cccc2ccccc12,–,–,–,–,–,–
> 100,1.6,0.1,0.1,3.1,0.05,–,–,–,–,–,–,CN(C/C=C/c1ccccc1)Cc1ccc(Cl)c2ccccc12,18,44,88,–,–,–
< 100,< 100,< 100,< 100,< 100,< 100,–,–,–,–,–,–,CN(C/C=C/C(=O)O)Cc1cccc2ccccc12,–,–,–,–,–,–
25,1.6,0.2,0.1,3.1,–,–,0.05,–,–,–,–,CCCC/C=C/C/C=C/CN(C)Cc1cccc2ccccc12,–,69,100,40,–,–
> 100,> 100,< 1.6,< 1.6,12.5,–,–,< 1.6,–,–,–,–,CN(C/C=C/C(=O)OCc1ccccc1)Cc1cccc2ccccc12,0,–,–,–,0,8
100,> 100,6.2,3.1,100,3.1,–,–,–,–,–,–,CN(CC/C=C/c1ccccc1)Cc1cccc2ccccc12,–,–,–,–,–,–
> 100,> 100,12.5,12.5,> 100,1.6,–,–,–,–,–,–,CN(C/C=C/CCc1ccccc1)Cc1cccc2ccccc12,–,–,–,–,–,–
> 100,> 100,> 100,> 100,> 100,> 100,–,–,–,–,–,–,CN(C/C=C/c1ccccc1)Cc1ccccc1,–,–,–,–,–,–
100,50,25,50,25,12.5,–,–,–,–,–,–,CN(C/C=C/c1ccccc1)CCc1cccc2ccccc12,–,–,–,–,–,–
> 100,> 100,> 100,> 100,> 100,12.5,–,–,–,–,–,–,CN(CCCc1ccccc1)Cc1cccc2ccccc12,–,–,–,–,–,–
> 100,50,≤ 1.6,≤ 1.6,50,≤ 1.6,–,–,–,–,–,–,COc1ccc(CN(C)C/C=C/c2ccccc2)c2ccccc12,–,41,65,–,–,–
> 100,12.5,0.2,0.4,3.1,0.1,–,–,–,–,–,–,Cc1ccc(CN(C)C/C=C/c2ccccc2)c2ccccc12,–,–,–,–,–,–
> 100,> 100,50,50,100,6.2,–,–,–,–,–,–,CN(C/C=C/c1ccccc1)CC1CCCc2ccccc21 (centres undefined),–,–,–,–,–,–
> 100,> 100,50,50,> 100,50,–,–,–,–,–,–,CN(C/C=C/Cc1ccccc1)Cc1cccc2ccccc12,–,–,–,–,–,–
100,12.5,≤ 1.6,≤ 1.6,6.25,–,–,–,–,–,≤ 1.6,–,CN(C/C=C/c1ccccc1F)Cc1cccc2ccccc12,0,59,94,–,–,–
> 100,> 100,50,50,100,25,–,–,–,–,–,–,CN(C/C=C/c1ccccc1)Cc1c(O)ccc2ccccc12,–,–,–,–,–,–
12.5,–,0.1,0.1,1.6,0.05,–,–,–,–,–,1.6,CN(C/C=C/c1ccccc1)Cc1cccc2ccccc12 [NAFTIFINE],35,88,100,–,–,–
